Laboratory results as given in ChEMBL document CHEMBL5346927, “Discovery of a novel 1H-pyrazole- [3,4-b] pyridine-based lysine demethylase 5B inhibitor with potential anti-prostate cancer activity that perturbs the phosphoinositide 3-kinase/AKT pathway” (Eur J Med Chem, 2023).

What was measured:
[1] = molecular target: T1, Lysine-specific demethylase 5B (Homo sapiens, UniProt Q9UGL1); test: Inhibition of KDM5B (unknown origin)
[2] = molecular target: T1, Lysine-specific demethylase 5B; test: Inhibition of KDM5B (unknown origin) at 10 uM relative to control
[3] = system: PC-3; test: Antitumor activity against human PC-3 cells assessed as inhibition of cell proliferation incubated for 72 hrs by MTT assay; format: functional, cell-based; settings: PC-3, 72 h
[4] = system: HepG2; test: Antitumor activity against human HepG2 cells assessed as inhibition of cell proliferation incubated for 72 hrs by MTT assay; format: functional, cell-based; settings: HepG2, 72 h
[5] = system: MGC-803; test: Antitumor activity against human MGC-803 cells assessed as inhibition of cell proliferation incubated for 72 hrs by MTT assay; format: functional, cell-based; settings: MGC-803, 72 h
[6] = system: MCF7; test: Antitumor activity against human MCF7 cells assessed as inhibition of cell proliferation incubated for 72 hrs by MTT assay; format: functional, cell-based; settings: MCF7, 72 h
[7] = system: DU-145; test: Antiproliferative activity against human DU-145 cells assessed as inhibition of cell proliferation incubated for 72 hrs by MTT assay; format: functional, cell-based; settings: DU-145, 72 h
[8] = system: LNCaP; test: Antiproliferative activity against human LNCaP cells assessed as inhibition of cell proliferation incubated for 72 hrs by MTT assay; format: functional, cell-based

T1 sequence (Q9UGL1 whole entry): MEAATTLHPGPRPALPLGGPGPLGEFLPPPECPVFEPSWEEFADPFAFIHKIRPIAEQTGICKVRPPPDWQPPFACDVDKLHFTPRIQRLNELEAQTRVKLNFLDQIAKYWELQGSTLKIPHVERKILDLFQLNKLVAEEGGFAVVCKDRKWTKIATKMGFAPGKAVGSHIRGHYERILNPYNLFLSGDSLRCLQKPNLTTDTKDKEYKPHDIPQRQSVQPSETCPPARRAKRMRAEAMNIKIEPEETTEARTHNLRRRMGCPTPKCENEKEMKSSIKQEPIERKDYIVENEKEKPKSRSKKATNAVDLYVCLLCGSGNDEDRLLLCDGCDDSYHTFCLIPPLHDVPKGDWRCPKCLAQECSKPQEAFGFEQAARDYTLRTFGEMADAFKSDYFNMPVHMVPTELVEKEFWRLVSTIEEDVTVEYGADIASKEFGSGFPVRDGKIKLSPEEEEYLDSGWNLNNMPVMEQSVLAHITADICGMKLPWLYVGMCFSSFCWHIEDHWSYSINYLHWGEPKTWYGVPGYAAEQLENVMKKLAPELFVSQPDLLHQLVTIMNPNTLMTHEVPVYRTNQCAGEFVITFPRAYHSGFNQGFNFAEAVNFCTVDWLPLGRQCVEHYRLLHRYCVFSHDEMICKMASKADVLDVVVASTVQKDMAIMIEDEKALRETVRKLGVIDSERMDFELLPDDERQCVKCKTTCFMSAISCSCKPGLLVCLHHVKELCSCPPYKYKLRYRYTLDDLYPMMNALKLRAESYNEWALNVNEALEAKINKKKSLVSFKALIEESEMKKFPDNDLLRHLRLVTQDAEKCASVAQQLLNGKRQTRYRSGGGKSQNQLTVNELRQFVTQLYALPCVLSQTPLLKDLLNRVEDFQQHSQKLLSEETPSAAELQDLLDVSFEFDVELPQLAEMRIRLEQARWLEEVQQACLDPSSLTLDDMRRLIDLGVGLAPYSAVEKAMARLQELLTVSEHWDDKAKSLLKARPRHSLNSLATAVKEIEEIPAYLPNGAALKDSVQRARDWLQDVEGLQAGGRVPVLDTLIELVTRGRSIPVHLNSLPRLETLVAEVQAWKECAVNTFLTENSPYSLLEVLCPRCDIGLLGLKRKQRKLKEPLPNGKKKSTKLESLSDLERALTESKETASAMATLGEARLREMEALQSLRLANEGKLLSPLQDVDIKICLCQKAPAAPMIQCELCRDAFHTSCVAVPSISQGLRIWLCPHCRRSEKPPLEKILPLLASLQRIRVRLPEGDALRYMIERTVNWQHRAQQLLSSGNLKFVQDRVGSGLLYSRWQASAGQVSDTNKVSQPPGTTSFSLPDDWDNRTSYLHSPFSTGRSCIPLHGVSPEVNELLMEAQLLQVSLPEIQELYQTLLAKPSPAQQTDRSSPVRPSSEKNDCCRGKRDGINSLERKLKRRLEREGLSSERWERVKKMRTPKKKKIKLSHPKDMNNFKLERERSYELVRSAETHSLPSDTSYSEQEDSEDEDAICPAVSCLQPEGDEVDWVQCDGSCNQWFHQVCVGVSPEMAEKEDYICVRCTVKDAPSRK

| SMILES | IC50 [1] | inhibition [2] | other results |
| --- | --- | --- | --- |
| CC(C)n1ncc2c(C(=O)NCc3cn(Cc4ccccc4)nn3)cc(-c3ccc4ccccc4c3)nc21 | 7.7 µM | 57% | – |
| Cc1ccc(-n2ncc3c(C(=O)NC4CCCC4)cc(-c4ccc5ccccc5c4)nc32)cc1 | > 10 µM | 5% | – |
| COc1ccc(-c2cc(C(=O)NCCN3CCN(C)CC3)c3cnn(-c4ccccc4)c3n2)cc1 | 0.237 µM | 88% | – |
| CN1CCN(CCNC(=O)c2cc(-c3ccccc3)nc3c2cnn3-c2ccccc2Cl)CC1 | > 10 µM | 21% | – |
| CC(C)c1ccc(-c2cc(C(=O)NCCN3CCN(C)CC3)c3cnn(-c4ccccc4)c3n2)cc1 | 0.132 µM | 87% | – |
| CC(C)c1ccc(-n2ncc3c(C(=O)NCCN4CCN(C)CC4)cc(-c4ccccc4)nc32)cc1 | 3.99 µM | 83% | – |
| Cc1ccc(-n2ncc3c(C(=O)NCCN4CCN(C)CC4)cc(-c4ccc5ccccc5c4)nc32)cc1 | 1.35 µM | 79% | – |
| Cc1ccc(-n2ncc3c(C(=O)NCc4cn(-c5ccccc5)nn4)cc(-c4ccc5ccccc5c4)nc32)cc1 | 2.17 µM | 74% | – |
| Cc1ccc(-n2ncc3c(C(=O)NCCN4CCCC4)cc(-c4ccc5ccccc5c4)nc32)cc1 | 7.35 µM | 58% | – |
| CN1CCN(CCNC(=O)c2cc(-c3ccc(Br)cc3)nc3c2cnn3-c2ccccc2)CC1 | > 10 µM | 31% | – |
| Cc1ccc(-n2ncc3c(C(=O)NCc4cn(Cc5ccc(C(F)(F)F)cc5)nn4)cc(-c4ccc5ccccc5c4)nc32)cc1 | 6.97 µM | 58% | – |
| Cc1ccc(-n2ncc3c(C(=O)NCc4cn(-c5cccc(F)c5)nn4)cc(-c4ccc5ccccc5c4)nc32)cc1 | 5.26 µM | 71% | – |
| Cc1ccc(-n2ncc3c(C(=O)NCCN4CCN(C)CC4)cc(-c4ccccc4)nc32)cc1 | 1.67 µM | 95% | – |
| O=C(O)CCNc1cc(N2CCc3ccccc3CC2)nc(-c2ccccn2)n1 | – | – | IC50 [3]: 20.3 µM; IC50 [4]: 39.8 µM; IC50 [5]: 29.3 µM; IC50 [6]: 33.7 µM |
| O=C(NCc1cn(Cc2ccccc2)nn1)c1cc(-c2ccc3ccccc3c2)nc2c1cnn2-c1ccc(C(F)(F)F)cc1 | 6.27 µM | 63% | – |
| Cc1ccc(-n2ncc3c(C(=O)NCCN4CCCCC4)cc(-c4ccc5ccccc5c4)nc32)cc1 | > 10 µM | 40% | – |
| CN1CCN(CCNC(=O)c2cc(-c3ccc4ccccc4c3)nc3c2cnn3-c2ccc(Br)cc2)CC1 | > 10 µM | 46% | – |
| Cc1ccc(-n2ncc3c(C(=O)Nc4cccnc4)cc(-c4ccc5ccccc5c4)nc32)cc1 | > 10 µM | -3% | – |
| Cc1ccc(-c2cc(C(=O)NCCN3CCN(C)CC3)c3cnn(-c4ccccc4)c3n2)cc1 | 0.658 µM | 79% | – |
| CCc1ccc(-c2cc(C(=O)NCCN3CCN(C)CC3)c3cnn(-c4ccccc4)c3n2)cc1 | 0.376 µM | 83% | – |
| Cc1ccc(-n2ncc3c(C(=O)NCc4cn(Cc5ccc(C#N)cc5)nn4)cc(-c4ccc5ccccc5c4)nc32)cc1 | 6.38 µM | 63% | – |
| O=C(O)CNC(=O)C(=O)O [N-OXALYLGLYCINE] | 920 µM | – | – |
| Cc1ccc(-n2ncc3c(C(=O)NCc4ccccc4)cc(-c4ccc5ccccc5c4)nc32)cc1 | > 10 µM | 27% | – |
| Cc1ccccc1-n1ncc2c(C(=O)NCCN3CCN(C)CC3)cc(-c3ccc4ccccc4c3)nc21 | 3.34 µM | 86% | – |
| Cc1cccc(-c2cc(C(=O)NCCN3CCN(C)CC3)c3cnn(-c4ccccc4)c3n2)c1 | 2.81 µM | 67% | – |
| Cc1ccc(-n2ncc3c(C(=O)NCc4cn(-c5ccc(C)cc5C)nn4)cc(-c4ccc5ccccc5c4)nc32)cc1 | > 10 µM | 17% | – |

| SMILES | IC50 [1] | inhibition [2] | other results |
| --- | --- | --- | --- |
| Cc1ccc(-n2ncc3c(C(=O)NCc4cn(-c5ccc(I)cc5)nn4)cc(-c4ccc5ccccc5c4)nc32)cc1 | 6.58 µM | 58% | – |
| CN1CCN(CCNC(=O)c2cc(-c3ccccc3)nc3c2cnn3-c2ccc(Br)cc2)CC1 | > 10 µM | 44% | – |
| Cc1ccc(-n2ncc3c(C(=O)NCCN4CCN(C)CC4)cc(-c4ccccc4)nc32)cc1C | 3.69 µM | 79% | – |
| Cc1cccc(-n2ncc3c(C(=O)NCCN4CCN(C)CC4)cc(-c4ccc5ccccc5c4)nc32)c1 | 9.43 µM | 53% | – |
| C#CNC(=O)c1cc(-c2ccc3ccccc3c2)nc2c1cnn2-c1ccc(C)cc1 | > 10 µM | 28% | – |
| Cc1ccc(-n2ncc3c(C(=O)NCCN(C)C)cc(-c4ccc5ccccc5c4)nc32)cc1 | 5.42 µM | 64% | – |
| CN1CCN(CCNC(=O)c2cc(-c3ccc4ccccc4c3)nc3c2cnn3-c2ccc(C(F)(F)F)cc2)CC1 | > 10 µM | 33% | – |
| CN1CCN(CCNC(=O)c2cc(-c3ccccc3)nc3c2cnn3-c2ccccc2)CC1 | 0.749 µM | 93% | – |
| Cc1ccccc1-c1cc(C(=O)NCCN2CCN(C)CC2)c2cnn(-c3ccccc3)c2n1 | 6.15 µM | 60% | – |
| Cc1ccc(-n2ncc3c(C(=O)NCc4cn(-c5cccc(Br)c5)nn4)cc(-c4ccc5ccccc5c4)nc32)cc1 | 9.45 µM | 51% | – |
| CC(C)c1ccc(-n2ncc3c(C(=O)NCCN4CCN(C)CC4)cc(-c4ccc5ccccc5c4)nc32)cc1 | 3.08 µM | 86% | – |
| Cc1ccc(-n2ncc3c(C(=O)NCc4cn(-c5ccc(C)c(C)c5)nn4)cc(-c4ccc5ccccc5c4)nc32)cc1 | 9.37 µM | 51% | – |
| Cc1ccc(-n2ncc3c(C(=O)Nc4ccccc4)cc(-c4ccc5ccccc5c4)nc32)cc1 | > 10 µM | -1% | – |
| Cc1ccc(-n2ncc3c(C(=O)NCc4cn(-c5ccc(F)cc5)nn4)cc(-c4ccc5ccccc5c4)nc32)cc1 | > 10 µM | 23% | – |
| Cc1cc(C)cc(-n2ncc3c(C(=O)NCCN4CCN(C)CC4)cc(-c4ccccc4)nc32)c1 | > 10 µM | 20% | – |
| CN1CCN(CCNC(=O)c2cc(-c3ccccc3)nc3c2cnn3-c2ccc(C(F)(F)F)cc2)CC1 | > 10 µM | 20% | – |
| O=c1[nH]cc(F)c(=O)[nH]1 [FLUOROURACIL] | – | – | IC50 [3]: 8.41 µM; IC50 [7]: 8.58 µM; IC50 [5]: 10.1 µM; IC50 [8]: 7.93 µM; IC50 [6]: 15.1 µM |
| CN1CCN(CCNC(=O)c2cc(-c3ccccc3)nc3c2cnn3-c2cccc(Cl)c2)CC1 | > 10 µM | 6% | – |
| Cc1cc(C)cc(-c2cc(C(=O)NCCN3CCN(C)CC3)c3cnn(-c4ccc5ccccc5c4)c3n2)c1 | > 10 µM | 35% | – |
| Cc1ccc(-n2ncc3c(C(=O)NCCN4CCN(C)CC4)cc(-c4ccc5ccccc5c4)nc32)cc1C | 1.94 µM | 89% | – |
| Cc1cccc(-n2ncc3c(C(=O)NCCN4CCN(C)CC4)cc(-c4ccccc4)nc32)c1 | > 10 µM | 14% | – |
| Cc1ccccc1-n1ncc2c(C(=O)NCCN3CCN(C)CC3)cc(-c3ccccc3)nc21 | 4.17 µM | 83% | – |
| CN1CCN(CCNC(=O)c2cc(-c3ccc(Cl)cc3)nc3c2cnn3-c2ccccc2)CC1 | > 10 µM | 43% | – |
| Cc1ccc(-n2ncc3c(C(=O)NCc4cn(Cc5ccccc5)nn4)cc(-c4ccc5ccccc5c4)nc32)cc1 | 3.93 µM | 72% | – |
| CN1CCN(CCNC(=O)c2cc(-c3ccccc3)nc3c2cnn3-c2ccc(Cl)cc2)CC1 | > 10 µM | 40% | – |
